The results in this text go back to a melting point compilation (Tetko et al.; mined from patent text by program, amines drawn as free bases though some values may be those of a salt).

Take `NC1CCN(C2c3ccccc3COc3ccc(Br)cc32)CC1` (stereo not drawn): the melting point (as a rule, the temperature, or range, at which the solid turns liquid) was 142 to 144 °C.

`CN(C)CCOc1ccc(Nc2nccc(-c3ccncc3)n2)cc1` returned a melting point of 120 to 122 °C.

For the molecule `Cc1cccc2c1nc(-c1cccc(Cl)c1[N+](=O)[O-])n2CC(O)C(C)(C)C` (stereo not drawn), the melting point lay within 236 to 237 °C.

`Nc1c(NC(=O)CC23CCCN2CCC3)cnc2ccccc12` had a melting point of 205 to 209 °C.

`CC1(O)c2ccccc2-c2[nH]nc(-c3ccccc3)c21` (stereo not drawn): the melting point fell in the range of 154 to 155 °C.

Take `COc1ccc2c(N)c3ccccc3nc2c1`: the melting point was in the range of 169 to 170 °C.

Take `NCCN1C(=O)c2ccccc2C1(O)c1ccccc1Cl` (stereo not drawn): the melting point was 172 to 174 °C.

On to `CCc1c(OC)cc(/C=C(\SC)S(C)=O)cc1OC` (stereo not drawn), for which the melting point was in the range of 82 to 83 °C.

Molecule `CCOC(=O)c1cc2c(F)c(Cl)ccc2[nH]1` had a melting point of 143 to 145 °C.

Turning to `O=C(O)c1ccc(OCCNC(=O)C2Cc3ccccc3N2S(=O)(=O)c2ccc(-c3cc(C(F)(F)F)ccc3Cl)cc2)cc1` (stereo not drawn), the melting point was 117 to 121 °C.

`CC(=O)OCCN1CSC(=Cc2cc(C(C)(C)C)c(O)c(C(C)(C)C)c2)C1=O`: the melting point lay in the range of 152 to 155 °C.

On to `CCCCc1c2ccccc2c(C=O)c2ccccc12`, for which the melting point worked out at 79 °C.

`COc1cc(C(C)=O)c(OC)cc1C` yielded a melting point of 75 to 77 °C.

`O=C1C2CCCC2=Nc2ccccc2N1Cc1ccc([N+](=O)[O-])cc1` (stereo not drawn): the melting point is 185 to 188 °C.

In the case of `Cc1cnc2c(NC(=O)c3c(Cl)cccc3Cl)ccc(Cl)c2c1Cl`, the melting point lay within 222 to 233 °C.

`Cc1ccccc1-c1nc2ccccc2n1Cc1c(F)cccc1F` yielded a melting point of 139 °C.

On to `CCO[C@@H]1c2ccn3c(C)c(C)nc3c2N[C@H](c2ccccc2)[C@H]1O`, for which the melting point was 143 to 144 °C.

As to `CCOC(=O)C1=C(COCCNc2nc(C(=O)NC)cs2)NC(C)=C(C(=O)OC)C1c1ccccc1Cl` (stereo not drawn), the melting point is 120 °C.

In turn, `O=C1c2ccc(N3CCCC3)c3cc(Br)cc(c23)C(=O)N1O` displayed a melting point of 234 to 235 °C.

`COC(=O)CC=CC=Cc1ccccc1`: the melting point amounted to 71 °C.

As to `CCCNC(=O)C(C)Cc1ccc2c(CCC)cn(Cc3ccc(C(=O)O)cc3OC)c2c1` (stereo not drawn), the melting point was 90 to 98 °C.

With `O=C(O)c1ccc(OCCCCCCc2cccc(O)c2O)cc1`, the melting point is 170 to 172 °C.

With `Oc1c(-c2ccc(F)cc2)nn2ccccc12`, the melting point fell in the range of 178 to 179 °C.

Turning to `CCc1ccc(COc2ccc(CC(NC(=O)c3cn4ccc(-c5ccc(Cl)cc5)cc4n3)C(=O)O)cc2)cc1` (stereo not drawn), the melting point was determined as 245 °C.

The molecule `CC(C)C[C@H](NC(=O)OCc1ccccc1)C(=O)N[C@@H](Cc1ccccc1)C(=O)CSCc1ccccn1` had a melting point of 82 to 87 °C.

Turning to `COc1ccc(-n2nc(Sc3ccc(Cl)cc3)c(C)c(C#N)c2=O)cc1`, the melting point was in the range of 146 to 148 °C.

The molecule `CCCCCCCCCCC#CC#CCCCCCCCCC(=O)O` registered a melting point of 57 to 58 °C.

Turning to `COc1cc([N+](=O)[O-])c2nccc(C)c2c1OCCCCc1ccccc1`, the melting point lay in the range of 88 to 89 °C.

Take `CC1(C)CC(=O)Nc2cc3nc(O)[nH]c3cc21`: the melting point is greater than 300 °C.

For `COc1cc(C)nc(NC(=O)NS(=O)(=O)c2cccc3nc(C)sc23)n1`, the melting point fell in the range of 178 to 180 °C.

With `Cn1cc(-c2ccccc2)c(=O)c(-c2cccc(Br)c2)c1`, the melting point is 172 °C.

As for `OCc1ccc(OCCCCCCCCCCC2c3c(c4ccccc4c4ccccc34)-c3c2c2ccccc2c2ccccc32)cc1`, the melting point lay within 64 to 66 °C.

Consider `NC(=O)COCC(Cc1ccccc1)NC(=O)[C@@H]1CCCN1C(=O)OCc1ccccc1` (stereo partly drawn), for which the melting point lay within 137 to 142 °C.

`Cc1c(C=CC#N)c2c(c(C)c1OCc1ccccc1)CCC(C)(C)O2` gave a melting point of 108 °C.

`CCOC(=O)c1cnc2nn(C)cc2c1NCCCN(C)C` yielded a melting point of 61 to 63 °C.

Turning to `CS(=O)(=O)C(=C1CN(C(c2ccccc2)c2ccccc2)C1)c1cccc(Br)c1`, the melting point came to 200 °C.

Molecule `CCCCCC(=O)NC(C(C)=O)c1ccccc1` (stereo not drawn) registered a melting point of 77 to 78 °C.

Regarding `Cc1cc(Br)cnc1CCCCNc1ncc(Cc2cccnc2)cc1[N+](=O)[O-]`, the melting point lay within 82 to 84 °C.

In the case of `CN1C(=O)Cc2ccccc2C1=O`, the melting point was in the range of 113 to 115 °C.

In the case of `C=CC1CC2=CC(=O)CCC2(C)C2CCC3(C)C(CCC3(C)O)C12` (stereo not drawn), the melting point was 116 to 117 °C.

In the case of `NC(=O)c1cc(C(=O)c2ccccc2)ccc1N`, the melting point worked out at 225 °C.

Take `CCNc1nc(Nc2ccccc2)ncc1C=O`: the melting point was 155 to 157 °C.

The molecule `COC(=O)/C=C/CSc1nc(N)cc(Cl)n1` showed a melting point of 146 to 149 °C.

In turn, `c1ccc2c(c1)NCc1cccn1-2` came in with a melting point of 108 to 110 °C.

`Cc1c(-c2ccc3c(c2)OCO3)n(Cc2ccc(OCCN3CCCCC3)cc2)c2ccc(O)cc12` gave a melting point of 122 to 125 °C.

In the case of `CC(C)(CO)NC(=O)c1nn(-c2ccc(Cl)cc2F)c2c1C1CCC2C1` (stereo not drawn), the melting point lay within 158 to 160 °C.

Take `CC(CC(=O)O)c1ccc(-c2ccccc2F)cc1` (stereo not drawn): the melting point was in the range of 87 to 88 °C.

Regarding `O=C(Nc1ccc(S(=O)(=O)Cl)cc1)c1ccccc1`, the melting point is 176 to 178 °C.

`C[C@H]1[C@H](N(C)C(=O)C(F)(F)F)CN1c1c(F)cc2c(=O)c(C(=O)O)cn(C3CC3)c2c1F` (relative stereo): the melting point fell in the range of 246 to 249 °C.

`CC12C=CCC1C1CCC3CC(=O)CCC3(C)C1CC2` (stereo not drawn) came in with a melting point of 140 to 141 °C.

As to `CC(C)(C)N1C(=O)c2cc([N+](=O)[O-])c(Cl)nc2C1=O`, the melting point fell in the range of 100 to 104 °C.

Molecule `CC1(C)OCC(Cn2c(=O)sc3c(=O)[nH]c(N)nc32)O1` (stereo not drawn) returned a melting point of 222 to 225 °C.

`Cc1cncc(C)c1-c1c(C)cc(C=Cc2ccc(C(C#N)C#N)cc2)cc1C` came in with a melting point of 58 to 60 °C.

With `COc1ccc(S(=O)(=O)N2CCc3cccc(-c4cc(OC)c(OC)c(OC)c4)c32)cc1`, the melting point fell in the range of 202 to 205 °C.

Regarding `Cc1ccc(CCc2ccccc2Br)c(NC=O)c1`, the melting point lay within 167 to 169 °C.

The molecule `CCCS(=O)(=O)Cc1cc2oc(S(N)(=O)=O)cc2cn1` came in with a melting point of 167 to 169 °C.

In turn, `COC(=O)c1ccc(Cl)c(C2(O)C(=O)N(Cc3ccc(OC)cc3OC)c3ccc(Cl)cc32)c1` (stereo not drawn) came in with a melting point of 56 °C.

In turn, `COCCN(C)CC(=O)N(C)Cc1ccc(C(=O)Nc2nc3c(OC)ccc(N4CCOCC4)c3s2)cc1` had a melting point of 171 to 173 °C.

For the molecule `O=C(O)C1(c2ccccc2)CC2CC2C1` (stereo not drawn), the melting point was 78 to 125 °C.

Consider `O=C(c1ccccc1F)c1cc2c(c(Cl)c1Cl)OC(CO)C2` (stereo not drawn), for which the melting point fell in the range of 148 to 150 °C.

The molecule `CS(=O)(=O)c1ccc(Oc2c(-c3ccc(S(C)(=O)=O)cc3)cnn(CC(F)(F)F)c2=O)cc1` displayed a melting point of 212 to 213 °C.

`COc1cccc(C=C2SC(=S)N(CC(=O)O)C2=O)c1-c1cc2c(cc1C)C(C)(C)CCC2(C)C` gave a melting point of 149 °C.

With `COC(=O)c1oc(C(C)(C)C)cc1NC(=O)Nc1ccc(C)cc1`, the melting point was in the range of 78 to 79 °C.
